Data reported in article PMC9939733 (The Journal of Biological Chemistry, 2023).
Where a chain is given by its changes, count along the chain named. Where “and” joins values, the source holds several entries; their conditions need not be identical. Equal values may be shown once.

Tests used:
Assay type in all cases: biochemical
WT IDH2 [1] = biological target: T1, WT IDH2 (Homo sapiens, UniProt P48735); test: Absorbance assay, substrate activity in the absence of DL-isocitrate; details: no DL-isocitrate; […] test compound, 75 μM NADP+, 2.0 nM WT IDH2; compared to DL-isocitrate
T1 construct: made in house; host or cells: Sf21 insect cells (cell pellets prepared at Evotec)
T1 sequence (P48735 40-452): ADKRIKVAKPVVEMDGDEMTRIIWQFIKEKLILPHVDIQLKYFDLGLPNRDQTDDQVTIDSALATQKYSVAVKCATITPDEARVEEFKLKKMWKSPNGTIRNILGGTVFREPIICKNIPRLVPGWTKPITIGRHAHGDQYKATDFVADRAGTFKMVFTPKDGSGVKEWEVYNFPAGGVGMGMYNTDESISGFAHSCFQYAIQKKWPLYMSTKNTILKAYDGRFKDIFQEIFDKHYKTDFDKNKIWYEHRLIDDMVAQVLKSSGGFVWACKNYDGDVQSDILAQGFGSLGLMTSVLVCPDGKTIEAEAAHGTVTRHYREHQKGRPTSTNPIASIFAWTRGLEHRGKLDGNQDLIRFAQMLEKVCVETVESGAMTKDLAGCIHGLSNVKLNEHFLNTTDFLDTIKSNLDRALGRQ
Outline: (§1)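 Tech. quadruplicates; cpds pipetted simultaneously, reaction initiated by dispenser addition.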

WT IDH1 [2] = biological target: T2, WT IDH1 (Homo sapiens, UniProt O75874); test: as above; details: no DL-isocitrate; […] test compound, 75 μM NADP+, 2.0 nM WT IDH1; compared to DL-isocitrate
T2 construct: made in house; host or cells: Escherichia coli BL21(DE3) pLyS
Outline: as §1

R172K IDH2 [3] = biological target: T3, R172K IDH2 (Homo sapiens, UniProt P48735, R172K); test: Absorbance assay, variant activity in the presence of equimolar 2OG (inhibition screen); details: 1.0 mM 2OG and 1.0 mM test compound, 0.03 μM R172K IDH2, 50 μM NADPH
T3 construct: made in house; host or cells: Sf21 insect cells (cell pellets prepared at Evotec)
T3 sequence (P48735 40-452 R172K): T1 sequence (P48735 40-452) with R133K
Outline: as §1

R140Q IDH2 [4] = biological target: T4, R140Q IDH2 (Homo sapiens, UniProt P48735, R140Q); test: as above; details: 6.0 mM 2OG and 6.0 mM test compound, 0.03 μM R140Q IDH2, 50 μM NADPH
T4 construct: made in house; host or cells: Sf21 insect cells (cell pellets prepared at Evotec)
T4 sequence (P48735 40-452 R140Q): T1 sequence (P48735 40-452) with R101Q
Outline: as §1

R132H IDH1 [5] = biological target: T5, R132H IDH1 (Homo sapiens, UniProt O75874, R132H); test: Electrochemical assay (FNR+R132H IDH1)@ITO/PGE electrode; parameters: made in house; host or cells: Escherichia coli BL21(DE3) pLyS (IDH1 R132H); details: for predicted change in catalytic rate: simulated from experimental Km and vmax, if 500 μM substrate consumed at the electrode-solution interface per scan
Protocol: Assays were carried out in an anaerobic glovebox (Glove Box Technology) under a nitrogen atmosphere. A potentiostat (Autolab PGSTAT 10) running on Nova software was used for all experiments. As previously described, the electrochemical apparatus included an Autolab electrode rotator, a two-chamber custom-made glass electrochemical cell, and custom-made rotating pyrolytic graphite edge (PGE) electrodes ([55]). Platinum wire was used as the counter electrode; it was placed in the working electrode chamber. Electrode potentials (E) were measured against a saturated calomel electrode and converted to the standard hydrogen electrode using a temperature-dependent equation (at 25 °C: ESHE = ESCE + 0.2412 V) ([55]). Nanoporous indium tin oxide (ITO) electrodes were made by electrophoretically depositing ITO nanoparticles (<50 nm, Sigma-Aldrich) onto PGE electrodes (ITO/PGE) as previously described ([55]). […] In all experiments, 0.85 nmol (homodimer basis) of IDH1 R132H was used; the amount of coloaded FNR was adjusted to achieve the desired enzyme loading ratio. Electrodes loaded with enzyme were thoroughly rinsed using buffer solution before each experiment to remove excess enzyme. […]
and controlled electrochemically under steady-state conditions (1).
Conditions: 25 °C, mixed buffer (20 […]
mM each MES, TAPS, CHES, pH 8.0), 10 mM MgCl2, 10 µM NADPH, 4 mL cell volume, (FNR+R132H IDH1)@ITO/PGE electrode, electrode area 0.06 cm2, rotated at 1000 rpm, E = –0.513 V vs SHE, enzyme loading ratios (molar): FNR/R132H IDH1; 2.5 (dimer basis).
(1 picture or pasted object on this page, not shown here)
Target sequence in this assay (O75874 2-414 R132H): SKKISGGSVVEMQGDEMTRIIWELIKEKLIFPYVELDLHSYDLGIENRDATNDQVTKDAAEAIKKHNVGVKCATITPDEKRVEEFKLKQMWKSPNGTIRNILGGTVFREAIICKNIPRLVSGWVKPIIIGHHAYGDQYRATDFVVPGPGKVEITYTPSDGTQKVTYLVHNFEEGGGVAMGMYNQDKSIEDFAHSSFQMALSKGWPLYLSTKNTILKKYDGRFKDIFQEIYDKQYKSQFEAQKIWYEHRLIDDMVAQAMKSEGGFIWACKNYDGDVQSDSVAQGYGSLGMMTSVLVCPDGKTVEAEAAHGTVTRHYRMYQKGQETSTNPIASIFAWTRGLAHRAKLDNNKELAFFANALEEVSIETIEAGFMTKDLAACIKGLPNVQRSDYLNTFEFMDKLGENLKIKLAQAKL

R132H IDH1 [6] = biological target: T5, R132H IDH1; test: Steady-state kinetics, absorbance assay; parameters: made in house; host or cells: Escherichia coli BL21(DE3) pLyS; details: for Kmapp / kcatapp: 0.03 μM enzyme, 50 μM NADPH, 20 mM MgCl2, pH 8.0
Protocol: (§2) Compounds were dispensed using a CyBio SDW-CW CyBi-Well Simultaneous Pipettor and assay started using a ThermoFisher Multidrop Combi reagent dispenser.
(§3) Reactions were performed as technical duplicates, and all assays were carried out in two independent duplicates.
Target sequence in this assay (O75874 whole entry R132H): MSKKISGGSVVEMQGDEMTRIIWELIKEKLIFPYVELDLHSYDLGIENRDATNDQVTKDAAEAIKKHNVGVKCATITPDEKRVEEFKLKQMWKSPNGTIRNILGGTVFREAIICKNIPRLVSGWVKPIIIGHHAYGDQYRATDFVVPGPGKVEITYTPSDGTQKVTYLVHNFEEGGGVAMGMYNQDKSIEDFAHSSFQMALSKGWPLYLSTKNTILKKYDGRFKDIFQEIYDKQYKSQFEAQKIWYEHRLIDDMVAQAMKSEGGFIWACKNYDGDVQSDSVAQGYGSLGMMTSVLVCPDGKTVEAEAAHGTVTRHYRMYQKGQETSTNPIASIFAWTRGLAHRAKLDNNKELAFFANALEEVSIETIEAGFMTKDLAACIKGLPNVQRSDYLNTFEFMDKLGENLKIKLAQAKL

WT IDH2 [7] = biological target: T1, WT IDH2; test: Absorbance assay, WT activity in the presence of equimolar DL-isocitrate (inhibition); details: […] isocitrate and […] test compound, 75 μM NADP+, 2.0 nM WT IDH2
Outline: as §1

WT IDH1 [8] = biological target: T2, WT IDH1; test: as above; details: […] isocitrate and […] test compound, 75 μM NADP+, 2.0 nM WT IDH1
Outline: as §1

R132H IDH1 [9] = biological target: T5, R132H IDH1; test: Absorbance assay, variant activity in the presence of equimolar 2OG (inhibition screen); parameters: made in house; host or cells: Escherichia coli BL21(DE3) pLyS; details: […] 2OG and […] test compound, 0.03 μM R132H IDH1, 50 μM NADPH
Outline: as §1
Target sequence in this assay (O75874 whole entry R132H): as above

R172K IDH2 [10] = biological target: T3, R172K IDH2; test: Steady-state kinetics, absorbance assay; details: 0.03 μM enzyme, 50 μM NADPH, 20 mM MgCl2, pH 8.0
Protocol: as §2, §3

R140Q IDH2 [11] = biological target: T4, R140Q IDH2; test: Steady-state kinetics, absorbance assay; details: 0.03 μM enzyme, 50 μM NADPH, 20 mM MgCl2, pH 8.0
Protocol: as §2, §3

R132C/S280F IDH1 = biological target: T6, R132C/S280F IDH1 (Homo sapiens, UniProt O75874, R132C/S280F); test: Steady-state kinetics, NADPH turnover assay
T6 construct: made in house
Protocol: independent runs, each composed of technical duplicates (n = 2; mean ± SD); c) R132C/S280F IDH1 assays
monitoring NADPH turnover were performed as reported (3). […]

T2 sequence (O75874 whole entry): as the sequence (O75874 whole entry R132H) above, with H132R counted along it
T6 sequence (O75874 whole entry R132C/S280F): as the sequence (O75874 whole entry R132H) above, with H132C, S280F counted along it

activity [%] (%-substrate conversion after 20 min incubation) (WT IDH2 [1]) | activity [%] (%-substrate conversion after 20 min incubation) (WT IDH1 [2]) | activity [%] (%-substrate conversion after 20 min incubation) (R172K IDH2 [3]) | activity [%] (%-substrate conversion after 20 min incubation) (R140Q IDH2 [4]) | decrease of R132H IDH1 faradaic 'coupled' current during each scan (R132H IDH1 [5]; cyclic voltammetry, stationary electrode, 20 μM NADPH, 10 mM MgCl2, pH 8) [%] | predicted change in catalytic rate (R132H IDH1 [5]) [%] | Kmapp (R132H IDH1 [6]) [mM] | Vmax (R132H IDH1 [6]; experimental value used for Michaelis-Menten simulation, Fig. 3H) [µM/min] | activity [%] (%-substrate conversion after 20 min incubation) (WT IDH2 [7]) | activity [%] (%-substrate conversion after 20 min incubation) (WT IDH1 [8]) | activity [%] (%-substrate conversion after 20 min incubation) (R132H IDH1 [9]) | Vmax (predicted for single enantiomer) (R132H IDH1 [6]; predicted, Fig. 3H simulation) [µM/min] | Kmapp (R172K IDH2 [10]) [mM] | kcatapp (R172K IDH2 [10]) | Kmapp (R140Q IDH2 [11]) | kcatapp (R140Q IDH2 [11]) [s⁻¹] | Kmapp (R132C/S280F IDH1) [mM] | kcatapp (R132C/S280F IDH1) [s⁻¹] | kcatapp (R132H IDH1 [6]) [s⁻¹] | SMILES
< 10 | < 10 | 112 ± 13 | 281 ± 4 | −43 | −22 | 12 | 9.6 | 100±4 | 107±4 | 161 ± 26 |  |  |  |  |  |  |  |  | CC(CC(=O)C(=O)O)C(=O)O (stereo not drawn) [compound 12, 4-methyl-2OG]
 |  |  |  |  | −46 |  |  |  |  |  | 9.6 |  |  |  |  |  |  |  | CC(CC(=O)C(=O)O)C(=O)O (single isomer, unassigned) [enantiopure 12]
< 10 | < 10 | 126 ± 3 | 753 ± 72 |  |  | 5.7 ± 3.3 |  | 98±2 | 96±1 | 376 ± 21 |  | 16 ± 5 | 7.8 ± 1.8 s⁻¹ and ~7.8 s⁻¹ | 3.8 ± 0.8 mM and 3.8 to 7.5 mM | 9.7 ± 0.4 | 0.24 ± 0.01 | 15 ± 3 | 9.2 ± 0.4 | CCCCC(CC(=O)O)C(=O)C(=O)O (stereo not drawn) [compound 4, 3-butyl-2OG]
< 10 | < 10 | 105 ± 6 | 632 ± 68 |  |  |  |  | 96±5 | 105±5 | 294 ± 31 |  |  | ~2.7 s⁻¹ |  |  |  |  |  | CCCC(CC(=O)O)C(=O)C(=O)O (racemic) [compound 3]
< 10 | < 10 | 151 ± 5 | 107 ± 4 |  |  | 3.7 ± 0.1 |  | 97±3 | 94±1 | 391 ± 20 |  | 4.2 ± 0.4 | 4.8 ± 0.2 s⁻¹ | 2.0 ± 0.8 mM and ~2.0 mM | 5.4 ± 0.3 | 0.31 ± 0.01 | 20.2 ± 0.5 | 6.9 ± 0.4 | CC(CC(=O)O)C(=O)C(=O)O (stereo not drawn) [compound 1, 3-methyl-2OG]
